From the METLIN SMRT retention time set (Domingo-Almenara et al. 2019)

Assay: gradient 5% acetonitrile 3 min, to 50% in 2 min, to 85% in 15 min, held 3 min, 100 µL/min
Conditions: column: Zorbax Extend-C18 2.1 x 50 mm; eluents: water / acetonitrile, 0.1% formic acid
How it was run: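 Over 3 months, pure standards in mixtures of ~100 molecules were run by HPLC coupled to a quadrupole time-of-flight mass spectrometer in positive and negative ionization mode. The column was a Zorbax Extend-C18 (2.1 × 50 mm, 1.8 μm) at 100 μL/min, eluted with water and acetonitrile each holding 0.1% formic acid, with 40 μL dead and 900 μL dwell volumes. Retention time was determined from adduct peaks chosen by software and checked manually.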

SMILES | RP-LC retention time [s]
O=C(c1ccc(Cl)cc1)N1CCN(c2nc(CN3CCCCC3)cs2)CC1 | 808
Cc1csc(-c2cc(S(=O)(=O)NC3CCCCC3)cn2CC(=O)N2CCCCC2)n1 | 1010
COc1ccc(OC)c(S(=O)(=O)N2CCCOCCNC(=O)[C@@H]3CCC[C@@H]32)c1 | 720
O=C(Cn1ncn2nc(-c3cccs3)cc2c1=O)N1CCN(c2ccccn2)CC1 | 622
CCOC(=O)c1sc(NC(=O)CN2CCN(c3ccccn3)CC2)nc1C | 605
Cc1ccc(NC(=O)CN2C(=O)NC3(CCCCC3)C2=O)cc1C | 792
CN(C)C(=O)c1cn(-c2ccc(-c3nc(C(C)(C)C)no3)cn2)cn1 | 808
COc1ccc(N2CCN(c3cc(C(=O)O)c4cc(NC(C)=O)ccc4n3)CC2)cc1 | 599
CC(=O)Nc1nnc(C2=COCCO2)o1 | 515
CC(C)Cn1ccc2c(cc(C(=O)Nc3ccc(C(C)C)cc3)n2C)c1=O | 1030
COc1ccc(NC(=O)C(C)C2CCN(C(=O)Nc3ccccc3)CC2)cc1Cl (configuration not stated) | 850
O=C(CN1CCN(C(=O)Nc2ccc(Cl)cc2)CC1=O)NC1CCCC1 | 690
CN1CCn2cc(S(=O)(=O)Nc3ccc(C#N)cc3)cc2C1=O | 662
CCOc1ccc(S(=O)(=O)N2CCC(C(=O)NCc3cccnc3)CC2)cc1 | 623
COc1ccc(NC(=O)Cn2c(Nc3cc(C)cc(C)c3)nc(C)cc2=O)cc1Cl | 849
O=C(NC1CCS(=O)(=O)C1)c1ccc(N2CCCC2)nn1 (configuration not stated) | 520
O=C(NCCC1=CCCCC1)c1ccc2ncnc(N3CCCC3)c2c1 | 688

The remaining lines, values ahead:

RP-LC retention time [s] | SMILES
626 | c1csc(-c2nc(-c3ccc4c(c3)ncn4CCN3CCCCC3)no2)c1
558 | CCN(CC)CCCNC(=O)CCc1c(-c2ccc(Cl)cc2)nc2ccccn12
792 | CCCNC(=O)CCc1nc2ccccc2n(CC(=O)Nc2ccc(C(=O)OCC)cc2)c1=O
796 | CC1CCCN(c2nc(=O)n(CC(=O)Nc3ccc4c(c3)OCO4)c3ccccc23)C1 (configuration not stated)
1110 | CCc1nc2cc(-c3noc(-c4ccc5ccccc5n4)n3)ccc2o1
756 | O=C(NCc1ccccc1F)C1CCCN(c2nnc3ccc(Cl)cn23)C1 (configuration not stated)
1170 | COc1ccc(-c2noc(-c3nc(Cc4ccccc4)no3)n2)cc1
580 | Cc1cc(N2CCN(C)CC2)nc2ccc(NC(=O)Nc3ccc4c(c3)OCCO4)cc12
1100 | Cc1cccc(-c2nc(-c3cccc(-c4ccn[nH]4)c3)no2)c1
764 | CCS(=O)(=O)Nc1ccc(C2=NN(C(=O)c3ccco3)C(c3cccs3)C2)cc1 (configuration not stated)
923 | CCc1ccc(S(=O)(=O)Nc2ccc3c(c2)N(C(=O)c2cccs2)CC3)s1
771 | Cc1ccc(-c2nc(C3CC(=O)N(C4CCCCC4)C3)no2)cn1 (configuration not stated)
988 | Cc1cc(S(=O)(=O)N2CCc3c(c(-c4nnc(-c5ccccc5F)o4)nn3C)C2)ccc1F
1050 | COc1ccc(-c2noc(Cc3nnc(-c4ccc(C)c(F)c4)o3)n2)cc1
734 | CCCNc1nc(-c2ccc(OC)cc2)nc2ccccc12
1030 | Cc1cccc(-c2noc(CN3C(=O)COc4ccccc43)n2)c1
753 | Cc1cc2nn(CC(=O)NCc3ccccc3)c(=O)n2c(-c2ccccc2)n1
867 | Cc1ccc(N2C(=O)CCS2(=O)=O)cc1S(=O)(=O)N1c2ccccc2CC1C (configuration not stated)
752 | COc1ccc(CNC(=O)Cn2nc3cc(C)nc(-c4ccccc4)n3c2=O)cc1
717 | COc1ccccc1-c1nnc(NC(=O)C2CCCN2S(=O)(=O)c2ccc(F)cc2)o1 (configuration not stated)
